{"source": "BindingDB's records for patent US10071965", "about": "(The State University of New York, 2018)", "biological_target": "T1, Enoyl-[acyl-carrier-protein] reductase [NADPH] FabI (Staphylococcus aureus (strain MRSA252), UniProt Q6GI75)", "T1 sequence (Q6GI75 whole entry)": "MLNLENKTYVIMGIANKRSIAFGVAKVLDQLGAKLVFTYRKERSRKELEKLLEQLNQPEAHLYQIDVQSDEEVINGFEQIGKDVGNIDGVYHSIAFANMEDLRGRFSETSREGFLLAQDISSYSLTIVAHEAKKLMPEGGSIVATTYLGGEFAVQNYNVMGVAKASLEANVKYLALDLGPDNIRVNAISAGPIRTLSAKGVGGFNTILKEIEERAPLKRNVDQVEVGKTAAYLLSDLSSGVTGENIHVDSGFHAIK", "experiment": "Tight-binding assay", "conditions": "pH 7.5"}
{"smiles": "Cc1ccc(Oc2ccccc2)c(O)c1", "note": "[US10071965, Compound PT53]", "values": [{"measurement": "Ki", "result": 0.494, "unit": "µM"}]}
